Tests used:
[1] = test system: HDAC (HeLa nuclear extract); test: Test for evaluation of an HDAC inhibitory effect (HDAC Fluorimetric Assay/Drug Discovery Kit, Biomol); assay type: biochemical; conditions: final concentration of test compound 30 μM, rates of more than 100% are shown as 100%
Experimental: Using HDAC Fluorimetric Assay/Drug Discovery Kit (manufactured by Biomol), an HDAC inhibitory effect of the present compounds was measured according to the protocol included with the kit. The kit contains Buffer, HeLa nuclear extract (includes an HDAC), Substrate, Developer and Trichostatin A (an HDAC inhibitor).
A test compound was dissolved in dimethyl sulfoxide, whereby a 2 mg/mL solution was prepared. Then, the resulting solution was diluted with Buffer containing 5% dimethyl sulfoxide, whereby a 150 μM test compound solution was prepared.
1) To a 384-well culture plate, the test compound solution was added in an amount of 2 μL per well.
2) HeLa nuclear extract was diluted 30-fold with Buffer. The resulting solution was added in an amount of 3 μL per well and then, incubation was performed at 37° C. for 2 hours.
3) Substrate was diluted 500-fold with Buffer. The resulting solution was added in an amount of 5 μL per well (the final concentration of the test compound was 30 μM) and then, incubation was performed at 37° C. for 10 minutes.
4) Developer was diluted 20-fold with Buffer and Trichostatin A (2 μM) was added to it. The resulting solution was added in an amount of 10 μL per well and then, incubation was performed at room temperature for 15 minutes.
5) The fluorescence intensity of each well was measured using multilabel counter ARVO (manufactured by Wallac) with excitation at 360 nm and emission at 460 nm.
6) A control data was obtained from the same experiment except that Buffer containing 5% DMSO was added instead of the test compound solution as the above-mentioned procedure from 1) to 5).
7) A blank data was obtained from the same experiment except that Buffer containing 5% DMSO was added instead of the test compound solution and that Buffer was added instead of Hela nuclear extract as the above-mentioned procedure from 1) to 5).
Enzyme inhibitory rate (%) was calculated using the following equation.
(Enzyme Inhibitory Rate(%))=100×[1−{(Fluorescence Intensity of Test Compound Solution)−(Florescence Intensity of Blank)}/{(Florescence Intensity of Control)−(Florescence Intensity of Blank)}]

[2] = test system: TM-1 cells (human trabecular meshwork cell line); test: Test for evaluation of effect of morphological change on trabecular meshwork cells (cell shape index); assay type: cell-based; conditions: 10 μM, 24 hours, control CSI 0.679, lower CSI indicates greater morphological change
Experimental: As a method for evaluating a cellular morphological change, an evaluation system using the cell shape index (hereinafter referred to as “CSI”) as an index has been reported in The Journal of Clinical Investigation, 103, 1141-1150 (1999). Therefore, according to the method described in the above document, an effect of morphological change by the present compounds on trabecular meshwork cells was evaluated.
A human trabecular meshwork cell line (hereinafter referred to as “TM-1 cells”) reported in Investigative Opthalmology & Visual Science, 43, 151-161 (2002) was used.
Culture medium 1: A reagent was prepared by adding fetal bovine serum (10%), L-glutamine (2 mM), amphotericin B (2.5 μg/mL), and gentamicin (25 μg/mL) to Dulbecco's Modified Eagle Medium (hereinafter referred to as “D-MEM”).
Culture medium 2: Fetal bovine serum (3%), L-glutamine (2 mM), amphotericin B (2.5 μg/mL), and gentamicin (25 μg/mL) were added to D-MEM.
Cell staining liquid: A mixed liquid of Calcein-AM (16 μM) and Hoechst 33342 (40 μM) was prepared by diluting a Calcein-AM solution (cytoplasmic staining reagent, manufactured by Dojindo Laboratories) and a Hoechst 33342 solution (nuclear staining reagent, manufactured by Dojindo Laboratories) with D-MEM containing L-glutamine (2 mM), amphotericin B (2.5 μg/mL), and gentamicin (25 μg/mL).
TM-1 cells subcultured at 37° C. in a 8% carbon dioxide gas atmosphere were treated with a trypsin/EDTA solution (0.05% trypsin and 0.53 mM tetrasodium ethylenediaminetetraacetate) at 24 hours before performing a drug treatment mentioned below and seeded on a 96-well culture plate. The culture medium 1 was used for the subculture of the cells. The culture medium 2 was used for the cell culture after seeding the cells on the plate.
A test compound was dissolved in dimethyl sulfoxide, whereby a 5 mM solution was prepared. Then, the resulting solution was diluted with the culture medium 2, whereby a 200 μM test compound solution was prepared.
It has been reported that Y-27632 which is a Rho kinase inhibitor induces a morphological change in trabecular meshwork cells in Investigative Opthalmology & Visual Science, 42, 137-144 (2001). Therefore, Y-27632 (produced according to the method described in WO 90/05723) was used as a positive control, and dissolved in dimethyl sulfoxide in the same manner as the test compound, whereby a 5 mM solution was prepared, and then, the resulting solution was diluted with the culture medium 2, whereby a 200 μM positive control compound solution was prepared.
1) To a 96-well culture plate, a solution of TM-1 cells adjusted to a cell density of […] was added in an amount of 95 μL (1.5×10^4 cells) per well.
2) Incubation was performed at 37° C. in a 8% carbon dioxide gas atmosphere for 24 hours.
3) The test compound solution or positive control compound solution was added in an amount of 5 μL per well (the final concentration of the test compound or positive control compound was 10 μM). As a control, the culture medium 2 containing dimethyl sulfoxide (4%) was added in an amount of 5 μL per well.
4) Incubation was performed at 37° C. in a 8% carbon dioxide gas atmosphere for 24 hours.
5) The cell staining liquid was added in an amount of 10 μL per well.
6) Incubation was performed at 37° C. in a 8% carbon dioxide gas atmosphere for 1 hour to stain the cells.
7) A 37% formaldehyde solution was added in an amount of 10 μL per well.
8) Incubation was performed at room temperature for 1 hour to fix the cells.
9) Washing with phosphate-buffered saline was performed.
10) Using Array Scan Vti HCS reader (manufactured by Cellomics), images of stained cells magnified with a 20-fold objective lens were captured in 80 fields (10 fields×8 wells) per test compound addition group.
11) CSI was calculated for each cell and an average value was obtained for each test compound addition group.
CSI was calculated using the following equation.
CSI=4π×(Cell Area)/(Cell Perimeter)^2

| Enzyme Inhibitory Rate (%) [1] [%] | SMILES | CSI [2] |
| --- | --- | --- |
| 97 | CN(C)CCCN(Cc1ccc(C(=O)Nc2ccccc2N)nc1)C(=O)NCC(=O)c1ccccc1 [Compound 1-40, N-(2-Aminophenyl)-5-[1-(3-dimethylaminopropyl)-3-(phenylcarbonylmethyl)ureidomethyl]pyridine-2-carboxylic acid amide] | 0.572 |
| 96 | CN(C)CCCN(Cc1ccc(C(=O)Nc2ccccc2N)nc1)C(=O)Nc1nccs1 [Compound 1-41, N-(2-Aminophenyl)-5-[1-(3-dimethylaminopropyl)-3-(1,3-thiazol-2-yl)ureidomethyl]pyridine-2-carboxylic acid amide] | 0.499 |
| 98 | COc1ccc2nc(NC(=O)N(CCCN(C)C)Cc3ccc(C(=O)Nc4ccccc4N)nc3)sc2c1 [Compound 1-42, N-(2-Aminophenyl)-5-[1-(3-dimethylaminopropyl)-3-(6-methoxy-1,3-benzothiazol-2-yl)ureidomethyl]pyridine-2-carboxylic acid amide] | 0.536 |
| 98 | CN(C)CCCN(Cc1ccc(C(=O)Nc2ccccc2N)nc1)C(=O)Nc1nc2ccc(F)cc2s1 [Compound 1-44, N-(2-Aminophenyl)-5-[1-(3-dimethylaminopropyl)-3-(6-fluoro-1,3-benzothiazol-2-yl)ureidomethyl]pyridine-2-carboxylic acid amide] | 0.554 |
| 98 | CCN(CC)CCCN(Cc1ccc(C(=O)Nc2ccccc2N)nc1)C(=O)Nc1ccc(F)c(F)c1 [Compound 1-46, N-(2-Aminophenyl)-5-[1-(3-diethylaminopropyl)-3-(3,4-difluorophenyl)ureidomethyl]pyridine-2-carboxylic acid amide] | 0.547 |
| 98 | CCN(CC)CCCN(Cc1ccc(C(=O)Nc2ccccc2N)nc1)C(=O)Nc1ccc(F)c([N+](=O)[O-])c1 [Compound 1-51, N-(2-Aminophenyl)-5-[1-(3-diethylaminopropyl)-3-(4-fluoro-3-nitrophenyl)ureidomethyl]pyridine-2-carboxylic acid amide] | 0.518 |
| 98 | CN(C)CCN(Cc1ccc(C(=O)Nc2ccccc2N)nc1)C(=O)Nc1ccc2c(c1)OCCO2 [Compound 1-53, N-(2-Aminophenyl)-5-[3-(2,3-dihydrobenzo[1,4]dioxin-6-yl)-1-(2-dimethylaminoethyl)ureidomethyl]pyridine-2-carboxylic acid amide] | 0.502 |
| 98 | CN(C)CCN(Cc1ccc(C(=O)Nc2ccccc2N)nc1)C(=O)Nc1cccc(F)c1 [Compound 1-55, N-(2-Aminophenyl)-5-[1-(2-dimethylaminoethyl)-3-(3-fluorophenyl)ureidomethyl]pyridine-2-carboxylic acid amide] | 0.525 |
| 97 | CN(C)CCN(Cc1ccc(C(=O)Nc2ccccc2N)nc1)C(=O)Nc1ccsc1 [Compound 1-56, N-(2-Aminophenyl)-5-[1-(2-dimethylaminoethyl)-3-(thiophen-3-yl)ureidomethyl]pyridine-2-carboxylic acid amide] | 0.526 |
| 98 | Nc1ccccc1NC(=O)c1ccc(CN(CCCN2CCCC2)C(=O)Nc2cccnc2)cn1 [Compound 1-58, N-(2-Aminophenyl)-5-[3-(pyridin-3-yl)-1-[3-(pyrrolidin-1-yl)propyl]ureidomethyl]pyridine-2-carboxylic acid amide] | 0.518 |
| 97 | CN1CCN(CCN(Cc2ccc(C(=O)Nc3ccccc3N)nc2)C(=O)Nc2cccc(F)c2)CC1 [Compound 1-63, N-(2-Aminophenyl)-5-[3-(3-fluorophenyl)-1-[2-(4-methylpiperazin-1-yl)ethyl]ureidomethyl]pyridine-2-carboxylic acid amide] | 0.521 |
| 99 | CN1CCN(CCCN(Cc2ccc(C(=O)Nc3ccccc3N)nc2)C(=O)Nc2ccc3c(c2)OCCO3)CC1 [Compound 1-68, N-(2-Aminophenyl)-5-[3-(2,3-dihydrobenzo[1,4]dioxin-6-yl)-1-[3-(4-methylpiperazin-1-yl)propyl]ureidomethyl]pyridine-2-carboxylic acid amide] | 0.502 |
| 98 | Cc1cccc(NC(=O)N(CCN(C)C)Cc2ccc(C(=O)Nc3ccccc3N)nc2)c1 [Compound 1-79, N-(2-Aminophenyl)-5-[1-(2-dimethylaminoethyl)-3-(3-methylphenyl)ureidomethyl]pyridine-2-carboxylic acid amide] | 0.497 |
| 98 | Nc1ccccc1NC(=O)c1ccc(CN(CCCCN2CCOCC2)C(=O)Nc2ccc3c(c2)OCCO3)cn1 [Compound 1-90, N-(2-Aminophenyl)-5-[3-(2,3-dihydrobenzo[1,4]dioxin-6-yl)-1-[4-(morpholin-4-yl)butyl]ureidomethyl]pyridine-2-carboxylic acid amide] | 0.480 |
| 97 | COc1ccccc1NC(=O)N(CCCCN1CCOCC1)Cc1ccc(C(=O)Nc2ccccc2N)nc1 [Compound 1-115, N-(2-Aminophenyl)-5-[3-(2-methoxyphenyl)-1-[4-(morpholin-4-yl)butyl]ureidomethyl]pyridine-2-carboxylic acid amide] | 0.467 |
| 100 | Cc1cccc(NC(=O)N(CCCN2CCC(C)CC2)Cc2ccc(C(=O)Nc3ccccc3N)nc2)c1 [Compound 1-116, N-(2-Aminophenyl)-5-[3-(3-methylphenyl)-1-[3-(4-methylpiperidin-1-yl)propyl]ureidomethyl]pyridine-2-carboxylic acid amide] | 0.455 |
| 91 | Nc1ccccc1NC(=O)c1ccc(CN(CCCCCN2CCOCC2)C(=O)NC2CCCC2)cn1 [Compound 1-141, N-(2-Aminophenyl)-5-[3-cyclopentyl-1-[5-(morpholin-4-yl)pentyl]ureidomethyl]pyridine-2-carboxylic acid amide] | 0.515 |

From patent publication US20100056522A1, “INTRAOCULAR PRESSURE-LOWERING AGENT COMPRISING COMPOUND HAVING HISTONE DEACETYLASE INHIBITOR EFFECT AS ACTIVE INGREDIENT” (Santen Pharmaceutical Co., Ltd., priority 2007, published 2010)
